Assay results: patent publication US20230346744A1, “SULFUR-CONTAINING COMPOUND USEFUL FOR TREATING OR PREVENTING PRESBYOPIA” (SANTEN PHARMACEUTICAL CO., LTD., priority 2020, published 2023)

Tests used:
Assay type in all cases: in vivo
C57BL/6J mice [1] = assay: Pharmacological Test-1: 3 times-daily instillation for 2 weeks, lens elasticity; settings: 3 times per day for 14 days; for Lens elasticity improvement: 0.03% (w/v) sample, 2.5 μL/eye, 9-month-old mice, vs vehicle control; for Lens elasticity effect compared with the vehicle control group (in words): 0.03% sample group
Method: The effect of 3 times-daily instillation of Compound 1 for 2 weeks on the lens elasticity was examined. The tests were conducted with reference to the methods described in InvestOphthalmol Vis Sci, 57, 2851-2863, 2016.
A vehicle comprising 1.0% (w/v) of polyoxyl 35 castor oil (hereinafter also referred to as “CO35”), 0.1% (w/v) of ethyl pyruvate, 0.269% (w/v) of sodium dihydrogenphosphate monohydrate (NaH2 PO4.H2O), 0.433% (w/v) of disodium hydrogenphosphate (Na2 HPO4), 0.2% (w/v) of hydroxypropyl methylcellulose, 0.5% (w/v) of NaCl, and purified water (appropriate amount) was prepared.
Compound 1 was stirred with the addition of the vehicle to give a 0.03% (w/v) solution. After preparation, it was refrigerated.
EVO6 was stirred with the addition of the vehicle to give a 0.03% (w/v) solution, which was for comparison in the test for Compound 1. After preparation, it was refrigerated.
1) Each test sample (2.5 μL/eye) was instilled into both eyes of 9-month-old C57BL/6J mice with a Pipetman 3 times per day (around 9:00, 13:00 and 17:00) for 14 days.
(§1) 2) After the final instillation, the mice were euthanized by carbon dioxide inhalation, and then the eyeballs were extracted and rinsed with Hank's balanced salt solution (HBSS).
(§2) 3) The sclera near the optic nerve was cut with a razor, the lens was removed through the incision, and the removed lens was immersed in HBSS.
(§3) 4) The lens was placed on a glass slide, and an all-in-one fluorescence microscope BZ-9000 (Keyence) was used to capture an image of the lens (Image a).
(§4) 5) Next, one cover glass (Corning(registered trade mark) 22×22 mm Square) was placed on the lens, and an image in which the thickness of the lens changed due to the weight was similarly captured (Image b).
6) A change in the lens diameter was calculated from the following Equation 1 wherein the lens diameter of Image a is subtracted from the lens diameter of Image b. Then, the lens elasticity improvement of each sample group compared with the vehicle control group was calculated from Equation 2 described below. The mean value of the vehicle control group was based on 8 eyes, and the mean value of each of the sample groups of Compound 1 and EVO6 was based on 10 eyes.
(§5) Change in lens diameter=Lens diameter in Image b of each test sample−Lens diameter in Image a of each test sample Equation 1
(§6) Lens elasticity improvement of each sample group=Mean change in lens diameter of each Test sample group−Mean change in lens diameter of Vehicle control group Equation 2

C57BL/6J mice [2] = assay: Pharmacological Test-3: once-daily instillation of Compounds 1, 2 and 3 for 2 weeks, lens elasticity; settings: 0.03% sample, 2.5 μL/eye, once per day for 14 days, 8-month-old mice, vs vehicle control
Method: The effect of once-daily instillation of each of Compounds 1, 2 and 3 for 2 weeks on the lens elasticity was examined.
(§7) A vehicle comprising 1.0% (w/v) of CO35, 0.1% (w/v) of ethyl pyruvate, 0.269% (w/v) of sodium dihydrogenphosphate monohydrate (NaH2 PO4.H2O), 0.433% (w/v) of disodium hydrogenphosphate (Na2HPO4), 0.2% (w/v) of hydroxypropyl methylcellulose, 0.5% (w/v) of NaCl, and purified water (appropriate amount) was prepared.
Each of Compounds 1 and 2 was stirred with the addition of the vehicle to give a 0.1% (w/v) solution.
To Compound 3 was added the vehicle to give a 0.1% (w/v) suspension. The resulting 0.1% (w/v) suspension was diluted with the vehicle to give a 0.03% (w/v) solution. Further, the resulting 0.03% (w/v) solution was diluted with the vehicle to give a 0.01% (w/v) solution.
After preparation, all were frozen.
1) Each test sample (2.5 μL/eye) was instilled into both eyes of 8-month-old C57BL/6J mice with a Pipetman once per day (around 9:00) for 14 days.
as §1, §2, §3, §4
(§8) 6) A change in the lens diameter was calculated from Equation 1 wherein the lens diameter of Image a is subtracted from the lens diameter of Image b, as described below. Then, the lens elasticity improvement of each sample group compared with the vehicle control group was calculated from Equation 2 described below. The mean value of each group was based on 10 eyes.
as §5, §6

C57BL/6J mice [3] = assay: Pharmacological Test-2: once-daily instillation of Compound 1 for 2 weeks, lens elasticity; settings: once per day for 14 days; for Lens elasticity improvement: 2.5 μL/eye, 9-month-old mice, vs vehicle control
Method: The effect of once-daily instillation of Compound 1 for 2 weeks on the lens elasticity was examined.
as §7
To Compound 1 was added the vehicle to give a 0.1% (w/v) solution. The resulting 0.1% (w/v) solution was diluted with the vehicle to give a 0.03% (w/v) solution. Further, the resulting 0.03% (w/v) solution was diluted with the vehicle to give a 0.01% (w/v) solution. After preparation, all were frozen.
1) Each test sample (2.5 μL/eye) was instilled into both eyes of 9-month-old C57BL/6J mice with a Pipetman once per day (around 9:00) for 14 days.
as §1, §2, §3, §4
6) A change in the lens diameter was calculated from Equation 1 wherein the lens diameter of Image a is subtracted from the lens diameter of Image b, as described below. Then, the lens elasticity improvement of each sample group compared with the vehicle control group was calculated from Equation 2 described below. The mean value of the vehicle control group was based on 9 eyes, and the mean value of each of the sample groups of Compound 1 was based on 10 eyes.
as §5, §6

Japanese White rabbit = assay: Ocular irritation test-1 (McDonald-Shadduck method); parameters: key to Irritation Score of anterior segment of the eye: Discharge / Irritation Score of anterior segment of the eye: Anterior chamber flare / Irritation Score of anterior segment of the eye: Light reflex / Irritation Score of anterior segment of the eye: Iris / Irritation Score of anterior segment of the eye: Corneal opacity / Irritation Score of anterior segment of the eye: Corneal angiogenesis / Irritation Score of anterior segment of the eye: Corneal epithelial disorder / Irritation Score of anterior segment of the eye: Conjunctival hyperemia / Irritation Score of anterior segment of the eye: Conjunctival edema: —: No noteworthy findings; settings: 50 μL/eye, 10 times at 30-minute intervals
Method: A vehicle eye drop and a 0.03% (w/v) Compound 1 eye drop were prepared in the same manner as Preparation of Test sample in Pharmacological test-1.
The vehicle eye drop, and the 0.03% (w/v) Compound 1 eye drop were each instilled into one eye of a Japanese White rabbit at a dose volume of 50 μL/eye with pipette 10 times at 30-minute intervals. One hour after the final instillation, ocular irritation of anterior segment of the eye was evaluated using a slit lamp according to the McDonald-Shadduck method.
Observation for corneal epithelial disorder was conducted 3 hours after the final instillation.
The ocular irritation of anterior segment of the eye was scored according to the following criteria: • 1: slight; +2: moderate; +3: severe

C57BL/6J mice [4] = assay: Pharmacological Test-5: once-daily instillation of Compounds 5, 6 and 7 for 2 weeks, lens elasticity; settings: once per day for 14 days
Method: The effect of once-daily instillation of each of Compounds 5, 6, and 7 for 2 weeks on the lens elasticity was examined.
as §7
Compound 5 was stirred with the addition of the vehicle to give a 0.1% (w/v) suspension. The resulting 0.1% (w/v) suspension was diluted with the vehicle to give a 0.03% (w/v) suspension.
Compound 6 was stirred with the addition of the vehicle to give a 0.1% (w/v) suspension. The resulting 0.1% (w/v) a suspension was diluted with the vehicle to give a 0.03% (w/v) suspension.
Compound 7 was stirred with the addition of the vehicle to give a 0.1% (w/v) suspension.
After preparation, all were refrigerated.
EVO6 was stirred with the addition of the vehicle to give a 0.03% (w/v) solution, which was for comparison in the test for Compounds 5, 6 and 7. After preparation, it was refrigerated.
1) Each test sample (2.5 μL/eye) was instilled into both eyes of 8-month-old C57BL/6J mice with a Pipetman once per day (around 13:30) for 14 days.
as §1, §2, §3, §4
as §8, with “8” for “10”
as §5, §6

C57BL/6J mice [5] = assay: Reference Pharmacological Test 1: effect of EV06 instillation on lens elasticity; settings: 3 times per day for 15 to 17 days; for Lens elasticity improvement: 2.5 μL/eye, 8-month-old mice, vs vehicle control
Method: The effect of lipoic acid choline ester (EV06) on the lens elasticity was examined. The tests were conducted with reference to the methods described in InvestOphthalmol Vis Sci, 57, 2851-2863, 2016. EV06 is a compound represented by the following formula: A vehicle comprising 0.1% (w/v) of ethyl pyruvate, 0.269% (w/v) of sodium dihydrogenphosphate monohydrate (NaH2PO4.H2O), 0.433% (w/v) of disodium hydrogenphosphate (Na2HPO4), 0.2% (w/v) of hydroxypropyl methylcellulose, 0.5% (w/v) of NaCl, and purified water (appropriate amount) was prepared. EVO6 was sonicated with the addition of the vehicle to prepare a 5% (w/v) suspension. The resulting 5% (w/v) suspension was diluted with the vehicle to prepare a 1.5% (w/v) solution. Further, the resulting 1.5% (w/v) solution was diluted with the vehicle to prepare a 0.5% (w/v) solution. The total amount of each sample to be used in one day was prepared before use. 1) Each test sample (2.5 μL/eye) was instilled into the right eye of 8-month-old C57BL/6J mice with a Pipetman 3 times per day (around 9:00, 13:00 and 17:00) for 15 to 17 days. 2) After the final instillation, the mice were euthanized by carbon dioxide inhalation, and then the eyeballs were extracted and rinsed with Hank's balanced salt solution (HBSS). 3) The sclera near the optic nerve was cut with a razor, the lens was removed through the incision, and the removed lens was immersed in HBSS. 4) The lens was placed on a glass slide, and an all-in-one fluorescence microscope BZ-9000 (Keyence) was used to capture an image of the lens (Image a). 5) Next, one cover glass (Corning^(registered trade mark) 22×22 mm Square) was placed on the lens, and an image in which the thickness of the lens changed due to the weight was similarly captured (Image b). 6) A change in the lens diameter was calculated from Equation 1 wherein the lens diameter of Image a is subtracted from the lens diameter of Image b, as described below. Then, the lens elasticity improvement of each sample group compared with the vehicle control group was calculated from Equation 2 described below. The mean of the vehicle control group was based on 6 eyes and the mean of each EV06 sample group was based on 12 eyes. Change in lens diameter=Lens diameter in Image b of each test sample−Lens diameter in Image a of each test sample Equation 1 Lens elasticity improvement of each sample group=Mean change in lens diameter of each EV06 sample group−Mean change in lens diameter of Vehicle control group equation 2

[6] = 0.03% eye drop, 1 hour after the final instillation

OCCCCC[C@@H](S)CCS [Compound 1, (R)-6,8-Dimercaptooctan-1-ol]
Lens elasticity improvement (C57BL/6J mice [1]): 53.8 μm | Lens elasticity effect compared with the vehicle control group (in words) (C57BL/6J mice [1]): potent elasticity improving effect | Lens elasticity improvement (C57BL/6J mice [2]): 55.5 μm | Lens elasticity improvement (C57BL/6J mice [3]; 0.01% (w/v) sample): 17.5 μm | Lens elasticity improvement (C57BL/6J mice [3]; 0.03% (w/v) sample): 53.0 μm | Lens elasticity improvement (C57BL/6J mice [3]; 0.1% (w/v) sample): 63.3 μm | Lens elasticity effect (in words) (C57BL/6J mice [3]; all of the concentrations of 0.01%, 0.03% and 0.1%): showed an elasticity improving effect | Irritation in anterior segment of the eye (in words) (Japanese White rabbit; 0.03% (w/v) eye drop): No irritation was observed | Irritation Score of anterior segment of the eye: Anterior chamber flare (Japanese White rabbit; [6]): — | Irritation Score of anterior segment of the eye: Conjunctival edema (Japanese White rabbit; [6]): — | Irritation Score of anterior segment of the eye: Corneal angiogenesis (Japanese White rabbit; [6]): — | Irritation Score of anterior segment of the eye: Corneal opacity (Japanese White rabbit; [6]): — | Irritation Score of anterior segment of the eye: Discharge (Japanese White rabbit; [6]): — | Irritation Score of anterior segment of the eye: Iris (Japanese White rabbit; [6]): — | Irritation Score of anterior segment of the eye: Light reflex (Japanese White rabbit; [6]): — | Irritation Score of anterior segment of the eye: Conjunctival hyperemia (Japanese White rabbit; 0.03% eye drop, 1 hour after the final instillation, scale +1 slight, +2 moderate, +3 severe): — | Irritation Score of anterior segment of the eye: Corneal epithelial disorder (Japanese White rabbit; 0.03% eye drop, 3 hours after the final instillation): —

C[N+](C)(C)CCOC(=O)CCCC[C@@H]1CCSS1.[Cl-] [EV06, lipoic acid choline ester, reference compound]
Lens elasticity improvement (C57BL/6J mice [1]): 3.6 μm | Lens elasticity effect compared with the vehicle control group (in words) (C57BL/6J mice [1]): no improvement in lens elasticity | Lens elasticity effect (in words) (C57BL/6J mice [4]; 0.03% sample group): no elasticity improving effect | Lens elasticity improvement (C57BL/6J mice [4]; 0.03% sample, 2.5 μL/eye, 8-month-old mice, vs vehicle control): 3.1 μm | Lens elasticity improvement (C57BL/6J mice [5]; 0.5% (w/v) sample): 28.8 μm | Lens elasticity effect compared with the vehicle control group (in words) (C57BL/6J mice [5]; 0.5%, 1.5% and 5% groups): elasticity improving effect | Lens elasticity improvement (C57BL/6J mice [5]; 1.5% (w/v) sample): 47.3 μm | Lens elasticity improvement (C57BL/6J mice [5]; 5% (w/v) sample): 48.7 μm
